Experiments:
[1] = target: T1, 5-hydroxytryptamine receptor 2C (Homo sapiens, UniProt P28335); assay: DRUGMATRIX: Serotonin (5-Hydroxytryptamine) 5-HT2C radioligand binding (ligand: [3H] Mesulergine); format: cell membranes, CHO-K1, Membrane; conditions: Not Active = under 50% inhibition at 10 µM
T1 sequence (P28335 whole entry): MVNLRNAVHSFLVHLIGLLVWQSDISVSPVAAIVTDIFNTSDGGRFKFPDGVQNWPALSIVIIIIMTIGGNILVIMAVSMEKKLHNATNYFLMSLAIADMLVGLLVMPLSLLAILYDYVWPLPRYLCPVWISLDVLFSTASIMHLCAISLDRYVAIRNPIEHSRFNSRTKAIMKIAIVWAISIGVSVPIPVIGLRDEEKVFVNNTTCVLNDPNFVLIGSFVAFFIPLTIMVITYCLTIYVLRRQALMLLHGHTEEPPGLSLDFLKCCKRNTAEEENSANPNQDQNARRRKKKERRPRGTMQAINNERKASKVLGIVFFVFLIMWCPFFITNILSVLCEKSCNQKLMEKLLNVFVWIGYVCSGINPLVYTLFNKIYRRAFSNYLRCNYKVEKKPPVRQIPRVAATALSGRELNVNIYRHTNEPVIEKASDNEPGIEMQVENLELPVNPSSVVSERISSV

[2] = DRUGMATRIX: Sigma2 radioligand binding (ligand: [3H] Ifenprodil); format: cell membranes, Rattus norvegicus, Wistar, Brain, Membrane; conditions: Not Active = under 50% inhibition at 10 µM
[3] = DRUGMATRIX: Calcium Channel Type L, Phenylalkylamine radioligand binding (ligand: [3H] (-)-Desmethoxyverapamil (D-888)); format: cell membranes, Rattus norvegicus, Wistar, Brain, Membrane; conditions: Not Active = under 50% inhibition at 10 µM
[4] = target: Prostaglandin G/H synthase 1 (Homo sapiens, UniProt P23219); assay: biochemical; format: tissue-based, Platelet; conditions: platelet;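 also: inhibition of COX-1 enzyme activity, with arachidonic acid supplied as substrate; in other assays of this panel Not Active means under 50% inhibition at 10 µM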
Prostaglandin G/H synthase 1, sequence (P23219 whole entry): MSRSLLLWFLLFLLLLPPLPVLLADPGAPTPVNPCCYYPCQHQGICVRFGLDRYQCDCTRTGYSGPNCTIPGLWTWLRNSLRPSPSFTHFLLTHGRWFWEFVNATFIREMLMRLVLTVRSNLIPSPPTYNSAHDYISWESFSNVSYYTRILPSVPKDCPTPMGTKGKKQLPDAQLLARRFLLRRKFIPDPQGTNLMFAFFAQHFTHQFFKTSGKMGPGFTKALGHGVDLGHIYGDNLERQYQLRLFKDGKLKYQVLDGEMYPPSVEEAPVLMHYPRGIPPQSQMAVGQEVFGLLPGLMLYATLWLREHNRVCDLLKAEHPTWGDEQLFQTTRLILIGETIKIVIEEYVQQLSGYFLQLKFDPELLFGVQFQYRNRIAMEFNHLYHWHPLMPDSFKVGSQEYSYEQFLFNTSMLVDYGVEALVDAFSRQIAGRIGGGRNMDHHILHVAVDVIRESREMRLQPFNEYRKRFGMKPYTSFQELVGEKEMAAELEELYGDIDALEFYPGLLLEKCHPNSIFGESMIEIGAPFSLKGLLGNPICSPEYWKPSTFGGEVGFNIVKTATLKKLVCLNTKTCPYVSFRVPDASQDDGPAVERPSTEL

[5] = target: T2, D(4) dopamine receptor (Homo sapiens, UniProt P21917); assay: DRUGMATRIX: Dopamine D4.2 radioligand binding (ligand: [3H] Spiperone); format: cell membranes, Membrane; conditions: cho-k1; Not Active = under 50% inhibition at 10 µM
T2 sequence (P21917 whole entry): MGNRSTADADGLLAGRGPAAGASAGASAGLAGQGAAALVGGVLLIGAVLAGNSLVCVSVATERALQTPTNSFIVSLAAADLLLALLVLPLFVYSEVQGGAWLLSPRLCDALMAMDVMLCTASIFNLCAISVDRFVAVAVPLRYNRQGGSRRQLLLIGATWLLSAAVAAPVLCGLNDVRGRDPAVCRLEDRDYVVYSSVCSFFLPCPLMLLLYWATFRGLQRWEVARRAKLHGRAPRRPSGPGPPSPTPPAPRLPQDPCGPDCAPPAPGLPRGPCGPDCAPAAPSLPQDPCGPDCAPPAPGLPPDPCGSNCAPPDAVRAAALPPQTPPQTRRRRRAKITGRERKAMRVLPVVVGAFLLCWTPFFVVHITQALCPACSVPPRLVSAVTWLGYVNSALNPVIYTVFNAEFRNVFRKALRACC

[6] = DRUGMATRIX: Purinergic P2X radioligand binding (ligand: [3H] alpha, beta-Methylene-ATP); format: cell membranes, Oryctolagus cuniculus, New Zealand albino, Urinary bladder, Membrane; conditions: Not Active = under 50% inhibition at 10 µM

Compound	IC50 ([1]; cho-k1)	IC50 [2]	Ki [2]	IC50 [3]	Ki [3]	IC50 [4]	IC50 [5]	IC50 [6]	Ki [6]	IC50 ([2]; read-out: IC50) [µM]	Ki ([2]; read-out: Ki) [µM]	IC50 ([1]; read-out: IC50) [µM]	Ki ([1]; read-out: Ki) [µM]	Ki ([1]; cho-k1)	Ki [4]	Ki [5]
O=C(C1CCCCC1)N1CC(=O)N2CCc3ccccc3C2C1 (stereo not given) [PRAZIQUANTEL]	Not Active	Not Active	Not Active	Not Active	Not Active	Not Active	Not Active	Not Active	Not Active	–	–	–	–	–	–	–
CCN(CC)CCOC(=O)c1ccc(N)cc1 [PROCAINE]	Not Active	Not Active	Not Active	Not Active	Not Active	Not Active	Not Active	Not Active	Not Active	–	–	–	–	–	–	–
CCCN(CCC)C(=O)C(CCC(=O)O)NC(=O)c1ccccc1 (stereo not given) [PROGLUMIDE]	Not Active	Not Active	Not Active	Not Active	Not Active	Not Active	Not Active	Not Active	Not Active	–	–	–	–	–	–	–
NC(=O)c1cnccn1 [PYRAZINAMIDE]	Not Active	Not Active	Not Active	Not Active	Not Active	Not Active	Not Active	Not Active	Not Active	–	–	–	–	–	–	–
OC(CCN1CCCCC1)(c1ccccc1)C1CCCCC1 (stereo not given) [TRIHEXYPHENIDYL]	Not Active	–	–	Not Active	Not Active	Not Active	Not Active	Not Active	Not Active	3.12	1.92	–	–	–	–	–
Cc1cc2cc3c(C)cc(=O)oc3c(C)c2o1 [TRIOXSALEN]	–	Not Active	Not Active	Not Active	Not Active	Not Active	Not Active	Not Active	Not Active	–	–	2.36	1.23	–	–	–
CCCC(CCC)C(=O)O [VALPROIC ACID]	Not Active	Not Active	Not Active	Not Active	Not Active	Not Active	Not Active	Not Active	Not Active	–	–	–	–	–	–	–
CCC1=C[C@@H]2CN(C1)Cc1c([nH]c3ccccc13)[C@@](C(=O)OC)(c1cc3c(cc1OC)N(C)[C@H]1[C@@](O)(C(=O)OC)[C@H](OC(C)=O)[C@]4(CC)C=CCN5CC[C@]31[C@@H]54)C2 [VINORELBINE]	Not Active	Not Active	Not Active	Not Active	Not Active	Not Active	Not Active	Not Active	Not Active	–	–	–	–	–	–	–
CADMIUM DICHLORIDE	Not Active	Not Active	Not Active	Not Active	Not Active	Not Active	Not Active	Not Active	Not Active	–	–	–	–	Not Active	Not Active	Not Active
